According to PubChem BioAssay (NCI):
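Interpolation was linear, between the two tested concentrations surrounding the appropriate level; five concentrations were tested over 48 hours in 96-well plates. GI50 is the concentration that inhibits growth by half. TGI denotes the concentration required for complete inhibition of growth.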

Key:
Assay in all cases: NCI-60 cell line screen, 48 h
SR leukemia = system: SR leukemia
MDA-N = system: MDA-N
M14 melanoma = system: M14 melanoma
U251 CNS = system: U251 CNS
T-47D breast = system: T-47D breast
MDA-MB-231 breast = system: MDA-MB-231 breast
MOLT-4 leukemia = system: MOLT-4 leukemia
HOP-92 NSCLC = system: HOP-92 NSCLC
MCF7 breast = system: MCF7 breast
A498 renal = system: A498 renal

With `N#Cc1c(NC(=S)NC(=O)c2ccccc2)nc2c(c1-c1ccccc1)CCC2` the TGI (SR leukemia) was > 100 µM, the TGI (MDA-N) was > 100 µM and the TGI (M14 melanoma) was > 100 µM. The TGI (U251 CNS) was > 100 µM, the TGI (T-47D breast) was > 100 µM and the TGI (MDA-MB-231 breast) was > 100 µM. For the same compound, the TGI (MOLT-4 leukemia) was > 100 µM.
In the case of `Nc1n[nH]c(=O)[nH]1`, the TGI (HOP-92 NSCLC) is reported as > 100 µM, the TGI (MCF7 breast) is reported as > 100 µM and the TGI (U251 CNS) is reported as > 100 µM. For the same compound, the TGI (A498 renal) was > 100 µM and the TGI (MOLT-4 leukemia) was > 100 µM.
`O=[Se]([O-])c1ccccc1.O=[Se]([O-])c1ccccc1.[OH3+].[OH3+].[Pt+2]` gave a GI50 (HOP-92 NSCLC) of 14.4 µM, a TGI (HOP-92 NSCLC) of 40.7 µM and a GI50 (MCF7 breast) of 6.42 µM. The TGI (MCF7 breast) was 37.2 µM, the GI50 (U251 CNS) was 9.51 µM and the TGI (U251 CNS) was 17.2 µM. For the same compound, the GI50 (A498 renal) was 16.5 µM, the TGI (A498 renal) was > 48.8 µM and the GI50 (MOLT-4 leukemia) was 3.62 µM. For the same compound, the TGI (MOLT-4 leukemia) was > 42.4 µM.
Work on `C=CC(=O)Nc1cccc(-c2nc(SC)nc(Nc3ccccc3OC)c2C#N)c1` yielded a GI50 (SR leukemia) of 1.49 µM, a TGI (SR leukemia) of 4.19 µM and a GI50 (HOP-92 NSCLC) of 1.7 µM. For the same compound, the TGI (HOP-92 NSCLC) was 4.28 µM, the GI50 (M14 melanoma) was 2.22 µM and the TGI (M14 melanoma) was 5.64 µM. The GI50 (T-47D breast) was 1.59 µM, the TGI (T-47D breast) was 4.34 µM and the GI50 (MDA-MB-231 breast) was 1.83 µM. For the same compound, the TGI (MDA-MB-231 breast) was 4.33 µM, the GI50 (A498 renal) was 2.8 µM and the TGI (A498 renal) was 9.34 µM. For the same compound, the GI50 (MOLT-4 leukemia) was 2.62 µM and the TGI (MOLT-4 leukemia) was 83.5 µM.
With `COC1OC(=O)[C@H]2O[N+]([O-])=C(C)[C@@H]12` (some centres not stated) the TGI (HOP-92 NSCLC) was > 100 µM, the TGI (MCF7 breast) was > 100 µM and the TGI (U251 CNS) was > 100 µM. The TGI (A498 renal) was > 100 µM and the TGI (MOLT-4 leukemia) was > 100 µM.
`O=C(O)c1ccc(NC(c2ccccc2)c2ccc3cccnc3c2O)cc1` (configuration not stated) was tested, and the TGI (SR leukemia) was > 100 µM, the TGI (HOP-92 NSCLC) was > 100 µM and the TGI (MDA-N) was > 100 µM. For the same compound, the TGI (M14 melanoma) was > 85.5 µM, the TGI (MCF7 breast) was > 80.7 µM and the TGI (U251 CNS) was > 41.2 µM. For the same compound, the TGI (T-47D breast) was 50.1 µM, the TGI (MDA-MB-231 breast) was > 61.4 µM and the TGI (A498 renal) was 78.4 µM. For the same compound, the TGI (MOLT-4 leukemia) was > 42.6 µM.
With `O=C(Nc1ccc(I)cc1C(=O)NCCO)c1cccs1` the TGI (SR leukemia) was > 100 µM, the TGI (M14 melanoma) was > 100 µM and the TGI (MCF7 breast) was > 100 µM. For the same compound, the TGI (U251 CNS) was > 100 µM and the TGI (MOLT-4 leukemia) was > 100 µM.
`CCC(=O)C(c1ccccc1)c1ccccn1` (configuration not stated) was tested, and the TGI (HOP-92 NSCLC) was > 100 µM, the TGI (MDA-N) was > 100 µM and the TGI (M14 melanoma) was > 100 µM. The TGI (MCF7 breast) was > 100 µM, the TGI (U251 CNS) was > 100 µM and the TGI (T-47D breast) was > 100 µM. For the same compound, the TGI (MDA-MB-231 breast) was > 100 µM and the TGI (A498 renal) was > 100 µM.
`CSC1=Nc2ccccc2N(C)c2c1c(-c1ccccc1)nn2C` was tested, and the TGI (SR leukemia) was 95 µM, the TGI (HOP-92 NSCLC) was > 100 µM and the TGI (MDA-N) was > 100 µM. For the same compound, the TGI (M14 melanoma) was > 100 µM, the TGI (MCF7 breast) was > 100 µM and the TGI (U251 CNS) was > 100 µM. The TGI (T-47D breast) was 49.7 µM, the TGI (MDA-MB-231 breast) was > 100 µM and the TGI (MOLT-4 leukemia) was 31.7 µM.
`Cc1[nH]c(/C=C2\C(=O)Nc3ccc(S(=O)(=O)Cc4c(Cl)cccc4Cl)cc32)c(C)c1C(=O)N1CCC[C@@H]1CN1CCCC1` was tested, and the GI50 (HOP-92 NSCLC) was 2.09 µM, the TGI (HOP-92 NSCLC) was > 44 µM and the GI50 (M14 melanoma) was 1.5 µM. It also gave a TGI (M14 melanoma) of 2.92 µM, a GI50 (MCF7 breast) of 1.69 µM and a TGI (MCF7 breast) of 3.64 µM. The GI50 (T-47D breast) was 12.2 µM, the TGI (T-47D breast) was 35.9 µM and the GI50 (MDA-MB-231 breast) was 1.57 µM. The TGI (MDA-MB-231 breast) was 3.16 µM, the GI50 (A498 renal) was 18.7 µM and the TGI (A498 renal) was 52.8 µM.
In the case of `O=C1CC(=O)N(c2ccccc2)N1/C(=C/c1ccccc1)c1ccccc1`, the TGI (SR leukemia) is reported as 40.9 µM, the TGI (HOP-92 NSCLC) is reported as 31.3 µM and the TGI (MDA-N) is reported as 34.3 µM. It also gave a TGI (M14 melanoma) of 46.6 µM, a TGI (MCF7 breast) of 57.3 µM and a TGI (U251 CNS) of 27.7 µM. For the same compound, the TGI (T-47D breast) was 67.8 µM, the TGI (MDA-MB-231 breast) was 30 µM and the TGI (MOLT-4 leukemia) was 6.54 µM.
With `CCn1cc(C(c2ccc(Cl)cc2)n2ccnc2)c2cc(Br)ccc21` (configuration not stated) the TGI (SR leukemia) was 36.8 µM, the TGI (HOP-92 NSCLC) was 19.4 µM and the TGI (MDA-N) was 66.2 µM. The TGI (M14 melanoma) was 26.7 µM, the TGI (MCF7 breast) was 29.8 µM and the TGI (U251 CNS) was 30.5 µM. The TGI (MDA-MB-231 breast) was 35.8 µM, the TGI (A498 renal) was 27 µM and the TGI (MOLT-4 leukemia) was > 100 µM.
`OCC1CCCC(n2cnc3c(=S)nc[nH]c32)O1` (configuration not stated) was tested, and the TGI (SR leukemia) was > 100 µM, the TGI (HOP-92 NSCLC) was > 100 µM and the TGI (MDA-N) was > 100 µM. The TGI (M14 melanoma) was > 100 µM, the TGI (MCF7 breast) was > 100 µM and the TGI (U251 CNS) was > 100 µM. For the same compound, the TGI (T-47D breast) was > 100 µM, the TGI (MDA-MB-231 breast) was > 100 µM and the TGI (A498 renal) was > 100 µM.
